Measured values reported in patent publication US6890950B2, “Lapachone delivery systems, compositions and uses related thereto” (priority 2002, dated 2005).
Entries after “also recorded” stand apart in the source; their conditions may differ.

Legend:
C57Blk/6 mice = test: animal toxicity study (morbidity and mortality); assay type: in vivo, mouse; conditions: HPβ-CD inclusion complex vs Cremophor vehicle, from LD50
Procedure: C57Blk/6 female mice (3-4 week-old, 18-20 g) (Jackson Labs, Me.) were used to study the morbidity and mortality of mice treated with HPβ-CD.β-lap inclusion complex. Four mice per group were used for each dose, which varied from 20 to 100 mg/kg. […] Mice were injected (i.p.) every Monday, Wednesday and Friday for three weeks for a total of 10 injections. Control animals (4 mice/group) were injected with 5000 mg/kg of HPβ-CD alone to evaluate its toxicity. This HPβ-CD dose is approximately ten times of the HPβ-CD amount introduced at the highest dose of β-lap (100 mg/kg) via the HPβ-CD.β-lap inclusion complex. The higher dose of HPβ-CD was used to ensure the lack of toxicity of this compound. Weight and lethality were measured on a daily basis following initial drug administration. All animals were maintained in a facility accredited by the Association for Assessment and Accreditation of Laboratory Animal Care according to the “Principles of Laboratory Animal Care” of the National Institutes of Health.

[1] = tested on: MDA-MB-468 NQO1+ human breast cancer xenografts; test: antitumor activity against xenografts; assay type: in vivo, athymic nude mice; conditions: for antitumor activity: 55-70 mg/kg i.p. every other day
Procedure: Athymic nude mice bearing […] tumors were treated with the indicated mg/mk doses of β-lap i.p. every other day, beginning at day 26.
When tumor volumes reached 20-30 mm^3 (at day 26), mice were then treated (by intraperitoneal injection) every other day with the indicated doses (in mg/kg) of β-lap (55-70 mg/kg were tested). […] Multiple cycles of treatments are now being tested, as are various dose regimen and scheduling protocols.

A549 NSCLC cells = test: survival and apoptosis (PARP cleavage) of NSCLC cells; assay type: cell-based, human; conditions: 8 μM β-lap, 4 h
Excerpt: NQO1-dependent apoptosis of A549 or CC-10 NSCLC cells by β-lap.

[2] = β-lap release from polymer millirods in PBS; assay type: physicochemical; conditions: fabrication and controlled release
NQO1+ LNCaP NQCl2 cells = test: radiosensitization, clonogenic survival; assay type: cell-based, human; conditions: β-lap given 4 h post-IR
Procedure: (§1) FIG. 15. […] Changes in colony forming ability. In A, pcDNA3-vector alone cells were tested. In B, same as A, except that NQO1^+ LNCaP cells were used.
(§2) To answer the question of whether NQO1 levels must be induced for β-lap radiosensitization, we examined NQO1^+ LNCaP NQC12 v. NQO1^− LNCaP-pcDNA3 vector alone cells for differences in radiosensitization by various concentrations of β-lap, given 4 h post-IR (FIG. 15).

NQO1− LNCaP cells = test: radiosensitization, clonogenic survival; assay type: cell-based, human
Procedure: as §1, §2

human cancer cells = conditions: variety of human cancer cells; read-out: antitumor activity (IC50); cited from earlier work

Compound: CC1(C)CCC2=C(O1)c1ccccc1C(=O)C2=O [β-lap, β-Lapachone]
- greater bioavailability in vivo compared to previous studies (C57Blk/6 mice): ~3 fold
- antitumor activity [1]: significant antitumor responses; also recorded: Significant antitumor activity
- antitumor activity ([1]; listed as β-Lap): significant antitumor activity
- antitumor responses ([1]; 65 and 70 mg/kg i.p. every other day, 10 doses): Significant antitumor responses
- lethality and apoptosis (A549 NSCLC cells): caused lethality and apoptosis
- structural integrity of released β-lap (UV-Vis spectra) [2]: maintained; also recorded: maintains its structural integrity
- radiosensitization (NQO1+ LNCaP NQCl2 cells): radiosensitized
- radiosensitization (NQO1− LNCaP cells): not sensitized
- IC50 (human cancer cells): 1 to 10 µM
